{
  "source": "paper PMC9145754",
  "about": "“Novel Soloxolone Amides as Potent Anti-Glioblastoma Candidates: Design, Synthesis, In Silico Analysis and Biological Activities In Vitro and In Vivo” (Pharmaceuticals, 2022)",
  "key": {"HuTu-80 cells": {"system": "HuTu-80 cells", "assay": "MTT cytotoxicity assay, HuTu-80", "assay_type": "cell-based", "settings": "Homo sapiens, HuTu80, 24 h, read-out: IC50, Duodenum, HuTu-80", "method": "In the first step of the study, we analyzed the cytotoxicity of novel soloxolone derivatives 1–12 in a panel of tumor cells, including human cervical carcinoma HeLa, human duodenal carcinoma HuTu-80 and murine melanoma B16 cells, as well as human non-transformed hFF3 foreskin fibroblasts. The cells were treated with derivatives for 24 h and cell viability was evaluated by 3-(4,5-dimethylthiazol-2-yl)-2,5-diphenyltetrazolium bromide (MTT) assay. SM was used as the reference compound.\n(§1) The cells in the exponential growth phase were seeded in quadruplicate in 96-well plates at a density of 1 × 10^4 cells/well for HeLa, U87, U118, KELLY and Neuro2a cells; 1.5 × 10^4 cells/well for HuTu-80 cells; 2 × 10^4 cells/well for B16 cells; and 7 × 10^3 cells/well for hFF3 fibroblasts. Cells were incubated under standard conditions overnight followed by their treatment with the investigated compounds (1–20 µM) for 24 h. Then, 10 µL of MTT solution was added to the cells to a final concentration of 0.5 mg/mL and plates were placed under standard conditions for 3 h followed by an aspiration of MTT-containing medium and a dissolution of formazan crystals with 100 µL of DMSO. The absorbance of each well was read at test and reference wavelengths of 570 and 620 nm, respectively, on a Multiscan RC plate reader (Thermo LabSystems, Helsinki, Finland)."}, "KELLY cells": {"system": "KELLY cells", "assay": "MTT cytotoxicity assay, KELLY", "assay_type": "cell-based", "settings": "Homo sapiens, 24 h, read-out: IC50, Neuroblastoma, KELLY", "method": "(§2) To evaluate the antitumor activity of the synthesized soloxolone amides in brain tumor cells, the cytotoxicity of compounds 4–12, predicted as BBB-permeable (Figure 3), was further analyzed in human glioblastoma U87 and U118 cells, as well as human neuroblastoma KELLY and murine neuroblastoma Neuro2a cells.\nas §1"}, "U87 cells": {"system": "U87 cells", "assay": "MTT cytotoxicity assay, U87", "assay_type": "cell-based", "settings": "Homo sapiens, U-87 MG, 24 h, read-out: IC50, Glioblastoma, U87", "method": "as §2, §1"}, "U118 cells [1]": {"system": "U118 cells", "assay": "Trans-well motility (CIM-Plate, xCELLigence)", "assay_type": "cell-based, human", "settings": "U118, 12 at 100 nM, starting after 20 h", "method": "To evaluate the ability of tryptamide 12 to suppress the migration potential of glioblastoma cells, two independent approaches were undertaken, including assessment of cell movement on a 2D surface (scratch assay) and through a trans-well membrane (CIM-Plate).\nTo assess the trans-well motility of glioblastoma cells, U118 cells were seeded in quadruplicate at 2 × 10^4 cells/well in the upper chamber of a CIM-Plate in FBS-free DMEM in the presence or absence of 12 at 100 nM. To induce trans-well motility of the cells, DMEM containing 10% FBS was placed in the lower chamber of the CIM-Plate. After that, the electrical impedance of the sensor electrodes mounted at the lower side of the porous membrane separating the upper and lower chambers of the CIM-plate was further measured using an xCELLigence RTCA DP instrument (ACEA Biosciences Inc., San Diego, CA, USA) every 1 h for 48 h."}, "U118 cells [2]": {"system": "U118 cells", "assay": "Mitochondrial membrane potential, JC-1", "assay_type": "cell-based, human", "settings": "for percentage of U118 cells with collapsed ΔψM: 12 at 4 µM, JC-1, control 4.7%", "method": "It is known that structural analogs of compound 12, such as SM, bardoxolone methyl and CDDO-Im, trigger the mitochondrial pathway of apoptosis in tumor cells, leading to significant dissipation of mitochondrial membrane potential (ΔψM). To evaluate the ability of 12 to affect ΔψM in glioblastoma cells, U118 cells were incubated with 12 (4 µM) for 6 and 24 h and stained with JC-1, a fluorescent probe accumulated either within highly polarized mitochondria emitting red fluorescence (JC-1 aggregates) or in cytoplasm, in the case of low ΔψM (JC-1 monomers, green fluorescence).\n[…] were cultured in 6-well plates for 24 h, incubated overnight under standard conditions and treated with 12 at 4 μM for 6 and 24 h. Thereafter, the cells were harvested, resuspended at 10^6 cell/mL in JC-1-containing PBS (5 µg/mL) and incubated under standard conditions for 30 min followed by the washing of the cells with PBS and flow cytometry analysis. In total, 10,000 events were acquired for each sample."}},
  "data": [
    {"molecule": "CC1(C)C(=O)C(C#N)=C[C@]2(C)C3=CC(=O)[C@@H]4[C@@H]5C[C@@](C)(C(=O)NCCc6c[nH]c7ccccc67)CC[C@]5(C)CC[C@@]4(C)[C@]3(C)CC[C@@H]12", "note": "[compound 12]", "values": [
      {"measurement": "IC50", "setting": "HuTu-80 cells", "result": "1.5 ± 0.1", "unit": "µM"},
      {"measurement": "IC50", "setting": "KELLY cells", "result": "1.8 ± 0.1", "unit": "µM"},
      {"measurement": "IC50", "setting": "U87 cells", "result": "1.9 ± 0.1", "unit": "µM"},
      {"measurement": "ability of cells to cross the porous membrane of the CIM-Plate", "setting": "U118 cells [1]", "result": "significantly suppressed"},
      {"measurement": "percentage of U118 cells with collapsed ΔψM", "setting": "U118 cells [2]; 6 h", "result": 7.5, "unit": "%"},
      {"measurement": "percentage of U118 cells with collapsed ΔψM", "setting": "U118 cells [2]; 24 h", "result": 20.4, "unit": "%"},
      {"measurement": "JC-1 aggregate/monomer ratios", "setting": "U118 cells [2]; U118, 12 at 4 µM", "result": "significantly reduced"}
    ]}
  ]
}
